One assay concerns the target human KHK-C (Homo sapiens (Human), UniProt P50053). The assay can be described thus: KHK Biochemical Assay (IC50), ADP-Glo, KHK-C. The following applies: ADP-Glo; average of at least two separate assays. The method, boiled down:
(§1)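 ADP-Glo luminescence measured ADP made over a 4 h room-temperature reaction of ATP plus fructose, started after 30 min compound–enzyme pre-incubation. Buffer: 50 mM Hepes pH 7.4, 140 mM KCl, 5 mM MgCl2, 0.01% Triton-X. Enzyme was His-tagged, BL21 (DE3)-expressed, Ni-NTA-purified; compounds in 1:3 DMSO dilution series.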

The target of the next assay is human KHK-A (Homo sapiens (Human), UniProt P50053). Nature of the assay: KHK Biochemical Assay (IC50), ADP-Glo, KHK-A. The following applies: ADP-Glo; average of at least two separate assays. The method, boiled down: as §1
human KHK-A, sequence (P50053 other isoform, or with tags, fused parts or gaps): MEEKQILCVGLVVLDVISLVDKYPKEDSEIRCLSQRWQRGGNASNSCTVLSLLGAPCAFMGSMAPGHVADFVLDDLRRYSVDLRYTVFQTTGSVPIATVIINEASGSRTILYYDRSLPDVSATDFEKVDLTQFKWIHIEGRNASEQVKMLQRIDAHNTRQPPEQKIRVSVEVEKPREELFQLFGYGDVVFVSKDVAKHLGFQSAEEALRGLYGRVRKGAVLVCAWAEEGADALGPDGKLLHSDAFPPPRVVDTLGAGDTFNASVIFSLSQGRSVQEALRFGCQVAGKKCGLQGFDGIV

This note sets out measurements from US12410160B2 (Gilead Sciences, Inc., priority 2021, dated 2025).

human KHK-C, sequence (P50053 whole entry): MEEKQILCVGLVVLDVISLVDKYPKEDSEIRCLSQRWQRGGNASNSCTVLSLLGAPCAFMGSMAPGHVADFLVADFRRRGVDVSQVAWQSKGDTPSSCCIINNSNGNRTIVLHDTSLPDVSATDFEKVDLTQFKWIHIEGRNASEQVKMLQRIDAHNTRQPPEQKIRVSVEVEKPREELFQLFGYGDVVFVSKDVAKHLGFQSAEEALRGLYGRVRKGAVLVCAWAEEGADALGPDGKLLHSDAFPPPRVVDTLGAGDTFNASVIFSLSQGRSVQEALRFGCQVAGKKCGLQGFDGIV

Take `C[C@H]1CCN1c1nc2c(c(-c3cc4c(N)nn(C(=O)OC(C)(C)C)c4cn3)n1)CCC2` [Example 868, tert-butyl (S)-3-amino-5-(2-(2-methylazetidin-1-yl)-6,7-dihydro-5H-cyclopenta[d]pyrimidin-4-yl)-1H-pyrazolo[3,4-c]pyridine-1-carboxylate]: the IC50 against human KHK-C turned out to be 230 nM; on human KHK-A, 158 nM.
The corresponding values for `COCCS(=N)(=O)c1cc(-c2nc(N3CC[C@@H]3C)nc3c2CCC3)ccc1OC` (stereo partly drawn) [Example 869, imino(2-methoxy-5-(2-((S)-2-methylazetidin-1-yl)-6,7-dihydro-5H-cyclopenta[d]pyrimidin-4-yl)phenyl)(2-methoxyethyl)-λ^6-sulfanone] are 21.6 nM and 5.9 nM.
As to `C[C@H]1CCN1c1nc2c(c(-c3ccc4c(c3)C3(CC3)C(=O)NC4=O)n1)CCC2` [Example 870, (S)-6′-(2-(2-methylazetidin-1-yl)-6,7-dihydro-5H-cyclopenta[d]pyrimidin-4-yl)-1′H-spiro[cyclopropane-1,4′-isoquinoline]-1′,3′(2′H)-dione], the IC50 is 69.5 nM against human KHK-C and 10.9 nM on human KHK-A.
On the same counts, the results for `C[C@H]1CCN1c1nc2c(c(-c3ccc(-c4noc(=O)[nH]4)cc3)n1)CCC2` [Example 871, (S)-3-(4-(2-(2-methylazetidin-1-yl)-6,7-dihydro-5H-cyclopenta[d]pyrimidin-4-yl)phenyl)-1,2,4-oxadiazol-5(4H)-one] are 23.4 nM and 50.4 nM.
The corresponding values for `C[C@H]1CCN1c1nc2c(c(-c3cccc(-c4noc(=O)[nH]4)c3)n1)CCC2` [Example 872, (S)-3-(3-(2-(2-methylazetidin-1-yl)-6,7-dihydro-5H-cyclopenta[d]pyrimidin-4-yl)phenyl)-1,2,4-oxadiazol-5(4H)-one] are 28.9 nM and 27 nM.
The corresponding values for `C[C@H]1CCN1c1nc2c(c(-c3cccc(S(=N)(N)=O)c3)n1)CCC2` (stereo partly drawn) [Example 873, 3-(2-((S)-2-methylazetidin-1-yl)-6,7-dihydro-5H-cyclopenta[d]pyrimidin-4-yl)benzenesulfonimidamide] are 23.6 nM and 24.1 nM.
In the case of `C[C@H]1CCN1c1nc2c(c(-c3ccc(S(=N)(N)=O)cc3)n1)CCC2` (stereo partly drawn) [Example 874, 4-(2-((S)-2-methylazetidin-1-yl)-6,7-dihydro-5H-cyclopenta[d]pyrimidin-4-yl)benzenesulfonimidamide], the half-inhibitory concentration (IC50) turned out to be 72.3 nM on human KHK-C and 88.4 nM at human KHK-A.
The corresponding values for `C[C@H]1CCN1c1nc2c(c(-c3ccc4c(c3)C3(CC4)CNC(=O)C3)n1)CCC2` (stereo partly drawn) [Example 875, 6-(2-((S)-2-methylazetidin-1-yl)-6,7-dihydro-5H-cyclopenta[d]pyrimidin-4-yl)-2,3-dihydrospiro[indene-1,3′-pyrrolidin]-5′-one] are 58 nM and 67 nM.
The corresponding values for `C[C@H]1CCN1c1nc2c(c(-c3cccc(-c4nnn[nH]4)c3)n1)CCC2` [Example 876, (S)-4-(3-(1H-tetrazol-5-yl)phenyl)-2-(2-methylazetidin-1-yl)-6,7-dihydro-5H-cyclopenta[d]pyrimidine] are 99.4 nM and 70.4 nM.
The corresponding values for `C[C@H]1CCN1c1nc2c(c(-c3cccc(S(=N)(=O)CC(=O)N4CCC4)c3)n1)CCC2` (stereo partly drawn) [Example 877, (2-(azetidin-1-yl)-2-oxoethyl)(imino)(3-(2-((S)-2-methylazetidin-1-yl)-6,7-dihydro-5H-cyclopenta[d]pyrimidin-4-yl)phenyl)-λ^6-sulfanone] are 208 nM and 186 nM.
For the compound `C[C@H]1CCN1c1nc2c(c(-c3cccc(S(=N)(=O)c4ccccc4)c3)n1)CCC2` (stereo partly drawn) [Example 878, imino(3-(2-((S)-2-methylazetidin-1-yl)-6,7-dihydro-5H-cyclopenta[d]pyrimidin-4-yl)phenyl)(phenyl)-λ^6-sulfanone], the values for the IC50 against human KHK-C and against human KHK-A were 86.9 nM and 37.8 nM, respectively.
On the same counts, the results for `C[C@H]1CCN1c1nc2c(c(-c3cccc(S(=N)(=O)c4ccc(C#N)cc4)c3)n1)CCC2` (stereo partly drawn) [Example 879, 4-(3-(2-((S)-2-methylazetidin-1-yl)-6,7-dihydro-5H-cyclopenta[d]pyrimidin-4-yl)phenylsulfonimidoyl)benzonitrile] are 46.7 nM and 41.6 nM.
The corresponding values for `COc1ccc(-c2nc(N3CC[C@@H]3C)nc3c2CCC3)cc1S(=N)(=O)CCN(C)C(C)=O` (stereo partly drawn) [Example 881, N-(2-(2-methoxy-5-(2-((S)-2-methylazetidin-1-yl)-6,7-dihydro-5H-cyclopenta[d]pyrimidin-4-yl)phenylsulfonimidoyl)ethyl)-N-methylacetamide] are 70.5 nM and 46 nM.
The corresponding values for `C[C@H]1CCN1c1nc2c(c(-c3ccc4c(c3)C(NS(C)(=O)=O)CCO4)n1)CCC2` (stereo partly drawn) [Example 883, N-(6-(2-((S)-2-methylazetidin-1-yl)-6,7-dihydro-5H-cyclopenta[d]pyrimidin-4-yl)chroman-4-yl)methanesulfonamide] are 14.6 nM and 21 nM.
Consider `CCC1Oc2cc(-c3nc(N4CC[C@@H]4C)nc4c3CCC4)ccc2C1NS(C)(=O)=O` (stereo partly drawn) [Example 884, N-(2-ethyl-6-(2-((S)-2-methylazetidin-1-yl)-6,7-dihydro-5H-cyclopenta[d]pyrimidin-4-yl)-2,3-dihydrobenzofuran-3-yl)methanesulfonamide], for which the values for the half-inhibitory concentration (IC50) against human KHK-C and on human KHK-A were 46.1 nM and 96.2 nM, respectively.
On the same counts, the results for `C[C@H]1CCN1c1nc2c(c(-c3ccc4c(c3)CC(F)C4NS(C)(=O)=O)n1)CCC2` (stereo partly drawn) [Example 885, N-(2-fluoro-5-(2-((S)-2-methylazetidin-1-yl)-6,7-dihydro-5H-cyclopenta[d]pyrimidin-4-yl)-2,3-dihydro-1H-inden-1-yl)methanesulfonamide] are 26.1 nM and 150 nM.
Turning to `C[C@@H]1Oc2cc(-c3nc(N4CC[C@@H]4C)nc4c3CCC4)ccc2[C@H]1NS(C)(=O)=O` [Example 886, N-((2s,3r)-2-methyl-6-(2-((S)-2-methylazetidin-1-yl)-6,7-dihydro-5H-cyclopenta[d]pyrimidin-4-yl)-2,3-dihydrobenzofuran-3-yl)methanesulfonamide], the IC50 on human KHK-C is 13.2 nM; on human KHK-A, 27.1 nM.
With `C[C@@H]1Oc2cc(-c3nc(N4CC[C@@H]4C)nc4c3CCC4)ccc2[C@@H]1NS(C)(=O)=O` [Example 887, N-((2s,3s)-2-methyl-6-(2-((S)-2-methylazetidin-1-yl)-6,7-dihydro-5H-cyclopenta[d]pyrimidin-4-yl)-2,3-dihydrobenzofuran-3-yl)methanesulfonamide], the values for the concentration for half-maximal inhibition (IC50) against human KHK-C and against human KHK-A were 10.5 nM and 44.4 nM, respectively.
The corresponding values for `C[C@H]1CCN1c1nc2c(c(-c3ccc4c(c3)C(O)CC4NS(C)(=O)=O)n1)CCC2` (stereo partly drawn) [Example 888, N-(3-hydroxy-5-(2-((S)-2-methylazetidin-1-yl)-6,7-dihydro-5H-cyclopenta[d]pyrimidin-4-yl)-2,3-dihydro-1H-inden-1-yl)methanesulfonamide] are 4.1 nM and 51.3 nM.
`Cc1cc(-c2nc(N3CC[C@@H]3C)nc3c2CCC3)cc2c1C(NS(C)(=O)=O)CO2` (stereo partly drawn) [Example 889, N-(4-methyl-6-(2-((S)-2-methylazetidin-1-yl)-6,7-dihydro-5H-cyclopenta[d]pyrimidin-4-yl)-2,3-dihydrobenzofuran-3-yl)methanesulfonamide]: the 50% inhibitory concentration (IC50) on human KHK-C came to 17.1 nM; at human KHK-A, 98.8 nM.
